Data: PubChem BioAssay AID330 (DTP/NCI, 2004)
“And” between values parts separate entries of the source, which are not always exact repeats. Equal values may be shown once. Toxic doses and inconclusive results are not listed.

Tested on: P388 leukemia ip, CD2F1 mice, survival T/C
Experiment: NCI In Vivo Anticancer Drug Screen. Data for tumor model P388 Leukemia (intraperitoneal) in CD2F1 (CDF1) mice
Settings: endpoint: median survival time, higher = longer survival
How it was run: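 Mice carrying the transplanted tumor received test compound or vehicle. Survival was recorded in each group, and the value is the treated-group measurement divided by that of the vehicle-treated control group.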

[1] = dose: 50.0 mg/kg/injection, schedule: Q01DX005 (ip), vehicle: saline
[2] = dose: 200.0 mg/kg/injection, schedule: Q01DX005 (ip), vehicle: saline
[3] = dose: 60.0 mg/kg/injection, schedule: Q01DX005 (ip), vehicle: saline with Tween-80
[4] = dose: 120.0 mg/kg/injection, schedule: Q01DX005 (ip), vehicle: saline with Tween-80
[5] = dose: 240.0 mg/kg/injection, schedule: Q01DX005 (ip), vehicle: saline with Tween-80
[6] = dose: 25.0 mg/kg/injection, schedule: Q01DX005 (ip), vehicle: Klucel (hydroxypropylcellulose) (HPC)
[7] = dose: 50.0 mg/kg/injection, schedule: Q01DX005 (ip), vehicle: Klucel (hydroxypropylcellulose) (HPC)
[8] = dose: 100.0 mg/kg/injection, schedule: Q01DX005 (ip), vehicle: Klucel (hydroxypropylcellulose) (HPC)
[9] = dose: 6.25 mg/kg/injection, schedule: Q01DX005 (ip), vehicle: saline with Tween-80
[10] = dose: 12.5 mg/kg/injection, schedule: Q01DX005 (ip), vehicle: saline with Tween-80
[11] = dose: 25.0 mg/kg/injection, schedule: Q01DX005 (ip), vehicle: saline with Tween-80
[12] = dose: 100.0 mg/kg/injection, schedule: Q01DX005 (ip), vehicle: saline with Tween-80
[13] = dose: 200.0 mg/kg/injection, schedule: Q01DX005 (ip), vehicle: saline with Tween-80
[14] = dose: 12.5 mg/kg/injection, schedule: Q01DX009 (ip), vehicle: saline with Tween-80
[15] = dose: 50.0 mg/kg/injection, schedule: Q01DX009 (ip), vehicle: saline with Tween-80
[16] = dose: 50.0 mg/kg/injection, schedule: Q01DX009 (ip), vehicle: saline
[17] = dose: 100.0 mg/kg/injection, schedule: Q01DX009 (ip), vehicle: saline
[18] = dose: 200.0 mg/kg/injection, schedule: Q01DX009 (ip), vehicle: saline
[19] = dose: 50.0 mg/kg/injection, schedule: Q01DX005 (ip), vehicle: saline with Tween-80
[20] = dose: 100.0 mg/kg/injection, schedule: Q01DX009 (ip), vehicle: saline with Tween-80
[21] = dose: 200.0 mg/kg/injection, schedule: Q01DX009 (ip), vehicle: saline with Tween-80

With `C=C(CCCCOCOCCOC)c1ccccc1` the T/C [1] was 106 % of control, the T/C (dose: 100.0 mg/kg/injection, schedule: Q01DX005 (ip), vehicle: saline) was 107 % of control and the T/C [2] was 99 % of control.
With `CC1(C)CCC[C@](C)(O)C2CCC=CC21` (some centres undefined) the T/C (dose: 100.0 mg/kg/injection, schedule: Q04DX002 (ip), vehicle: Klucel (hydroxypropylcellulose) (HPC)) was 106 % of control, the T/C (dose: 200.0 mg/kg/injection, schedule: Q04DX002 (ip), vehicle: Klucel (hydroxypropylcellulose) (HPC)) was 104 % of control and the T/C (dose: 400.0 mg/kg/injection, schedule: Q04DX002 (ip), vehicle: Klucel (hydroxypropylcellulose) (HPC)) was 114 % of control.
With `Nc1ncnc2c1c(-c1ccccc1)cn2-c1ccccc1` the T/C [3] was 103 % of control, the T/C [4] was 104 % of control and the T/C [5] was 98 % of control.
In the case of `BrCC[P+](c1ccccc1)(c1ccccc1)c1ccccc1`, the T/C (dose: 1.56 mg/kg/injection, schedule: Q01DX009 (ip), vehicle: water) is reported as 115 % of control, the T/C (dose: 3.0 mg/kg/injection, schedule: Q01DX009 (ip), vehicle: water) is reported as 120 % of control and the T/C (dose: 6.25 mg/kg/injection, schedule: Q01DX009 (ip), vehicle: water) is reported as 118 % of control.
`CCOC(=O)c1cc(CC)[nH]c(=O)c1C#N` was tested, and the T/C [6] was 92 % of control, the T/C [7] was 98 % of control and the T/C [8] was 100 % of control.
In the case of `CN1CCc2cc3c(cc2[C@H]1[C@@H]1OC(=O)c2c1ccc1c2OCO1)OCO3`, the T/C [9] is reported as 101 % of control and the T/C [10] is reported as 97 % of control.
With `CCOC(=O)C1C2(C(C)=O)C(C)=Nc3c(C#N)cnn3C12C(=O)OCC` (centres undefined) the T/C [9] was 105 % of control, the T/C [10] was 100 % of control and the T/C [11] was 104 % of control. For the same compound, the T/C [12] was 92 % of control and the T/C [13] was 91 % of control.
With `CCN(CC)CCS(=O)Cc1ccccc1` (centres undefined) the T/C [3] was 100 % of control, the T/C [4] was 93 % of control and the T/C [5] was 102 % of control.
In the case of `S=C=NCCc1ccccc1`, the T/C [14] is reported as 116 % of control, the T/C (dose: 22.0 mg/kg/injection, schedule: Q01DX009 (ip), vehicle: saline with Tween-80) is reported as 115 % of control and the T/C [15] is reported as 114 % of control.
For `Cc1c2c(c(O)c3c(O)cccc13)C(=O)C1(O)C(O)=C(C(=O)NCNc3ccc(C(N)=O)cn3)C(=O)C(N(C)C)C1C2` (centres undefined), the T/C (dose: 3.12 mg/kg/injection, schedule: Q01DX005 (ip), vehicle: saline) was 111 % of control, the T/C (dose: 6.25 mg/kg/injection, schedule: Q01DX005 (ip), vehicle: saline) was 114 % of control and 117 % of control and the T/C (dose: 12.5 mg/kg/injection, schedule: Q01DX005 (ip), vehicle: saline) was 114 % of control. The T/C (dose: 25.0 mg/kg/injection, schedule: Q01DX005 (ip), vehicle: saline) was 120 % of control.
For `O=c1c(N=Nc2ccccc2Cl)c(O)n(-c2ccc(Br)cc2)c(=S)n1-c1ccccc1`, the T/C (dose: 100.0 mg/kg/injection, schedule: Q04DX002 (ip), vehicle: saline with Tween-80) was 96 % of control, the T/C (dose: 200.0 mg/kg/injection, schedule: Q04DX002 (ip), vehicle: saline with Tween-80) was 90 % of control and the T/C (dose: 400.0 mg/kg/injection, schedule: Q04DX002 (ip), vehicle: saline with Tween-80) was 90 % of control.
`Cc1ccc(Nc2ccc3c4c(cc(=O)n3C)-c3ccccc3C(=O)c24)c(S(=O)(=O)O)c1` was tested, and the T/C [16] was 87 % of control, the T/C [17] was 91 % of control and the T/C [18] was 99 % of control. The T/C (dose: 400.0 mg/kg/injection, schedule: Q01DX009 (ip), vehicle: saline) was 95 % of control.
In the case of `Nc1ncc2c(n1)CCCC2`, the T/C [19] is reported as 98 % of control, the T/C [12] is reported as 98 % of control and the T/C [13] is reported as 100 % of control.
`COC(=O)N1C(C#N)=CCc2ccccc21` was tested, and the T/C [3] was 94 % of control, the T/C [4] was 108 % of control and the T/C [5] was 97 % of control.
In the case of `CCOC(=O)C(Cc1ccc(N(CCCl)CCCl)cc1)NC(=O)C(Cc1ccc(N)cc1)NC(C)=O` (centres undefined), the T/C (dose: 3.12 mg/kg/injection, schedule: Q01DX005 (ip), vehicle: saline with Tween-80) is reported as 123 % of control, the T/C [9] is reported as 159 % of control and the T/C [10] is reported as 207 % of control. For the same compound, the T/C [11] was 298 % of control, the T/C [19] was 104 % of control and 115 % of control and 117 % of control and the T/C [12] was 114 % of control and 120 % of control. The T/C [13] was 122 % of control and the T/C (dose: 400.0 mg/kg/injection, schedule: Q01DX005 (ip), vehicle: saline with Tween-80) was 115 % of control.
`COC(=O)C1C(=O)COC1C` (centres undefined) was tested, and the T/C [1] was 102 % of control and the T/C [2] was 102 % of control.
In the case of `Nc1nc(SCc2ccccc2[N+](=O)[O-])c2[nH]cnc2n1`, the T/C [20] is reported as 104 % of control, the T/C (dose: 100.0 mg/kg/injection, schedule: Q04DX003 (ip), vehicle: saline with Tween-80) is reported as 100 % of control and the T/C [21] is reported as 95 % of control. For the same compound, the T/C (dose: 200.0 mg/kg/injection, schedule: Q04DX003 (ip), vehicle: saline with Tween-80) was 100 % of control, the T/C (dose: 400.0 mg/kg/injection, schedule: Q01DX009 (ip), vehicle: saline with Tween-80) was 90 % of control and the T/C (dose: 400.0 mg/kg/injection, schedule: Q04DX003 (ip), vehicle: saline with Tween-80) was 91 % of control.
In the case of `CC(C)CC(NC(=O)CNC(=O)CN)C(=O)O` (centres undefined), the T/C (dose: 60.0 mg/kg/injection, schedule: Q01DX005 (ip), vehicle: saline) is reported as 102 % of control, the T/C (dose: 120.0 mg/kg/injection, schedule: Q01DX005 (ip), vehicle: saline) is reported as 99 % of control and the T/C (dose: 240.0 mg/kg/injection, schedule: Q01DX005 (ip), vehicle: saline) is reported as 106 % of control.
In the case of `CC(C)(C)CC(C)(C)c1ccc(OCCO)cc1`, the T/C (dose: 50.0 mg/kg/injection, schedule: Q04DX003 (ip), vehicle: saline) is reported as 91 % of control and the T/C (dose: 100.0 mg/kg/injection, schedule: Q04DX003 (ip), vehicle: saline) is reported as 108 % of control.
For `[Br][Pt+2][Br].[NH-]C1CCCC1[NH-]` (centres undefined), the T/C (dose: 12.5 mg/kg/injection, schedule: Q04DX002 (ip), vehicle: saline with Tween-80) was 164 % of control, the T/C (dose: 25.0 mg/kg/injection, schedule: Q04DX002 (ip), vehicle: saline with Tween-80) was 197 % of control and 174 % of control and the T/C (dose: 50.0 mg/kg/injection, schedule: Q04DX002 (ip), vehicle: saline with Tween-80) was 93 % of control and 212 % of control.
For `O=C/C=C/c1ccc([N+](=O)[O-])cc1Cl`, the T/C (dose: 25.0 mg/kg/injection, schedule: Q01DX009 (ip), vehicle: saline with Tween-80) was 104 % of control, the T/C [15] was 106 % of control and the T/C [16] was 115 % of control. The T/C [20] was 106 % of control, the T/C [17] was 124 % of control and the T/C [18] was 124 % of control.
With `CC(C)(C)NC(=O)Nc1cccc(C(=O)O)c1` the T/C [3] was 99 % of control, the T/C [4] was 96 % of control and the T/C [5] was 105 % of control.
`OCCSc1c(Cl)c(Cl)c(Cl)c(Cl)c1Cl` was tested, and the T/C [20] was 106 % of control and the T/C [21] was 113 % of control.
In the case of `CC(C)C[NH-].CC(C)C[NH-].[Cl][Pt+2]([Cl])([Cl])[Cl]`, the T/C (dose: 5.56 mg/kg/injection, schedule: Q01DX009 (ip), vehicle: saline with Tween-80) is reported as 169 % of control, the T/C (dose: 8.33 mg/kg/injection, schedule: Q01DX009 (ip), vehicle: saline with Tween-80) is reported as 166 % of control and the T/C [14] is reported as 166 % of control and 181 % of control.
With `COc1ccn(C2OC(COC(=O)c3ccccc3)C(OC(=O)c3ccccc3)C2OC(=O)c2ccccc2)c(=O)n1` (centres undefined) the T/C [6] was 97 % of control, the T/C [7] was 88 % of control and 93 % of control and the T/C [8] was 90 % of control. For the same compound, the T/C (dose: 200.0 mg/kg/injection, schedule: Q01DX005 (ip), vehicle: Klucel (hydroxypropylcellulose) (HPC)) was 92 % of control.
In the case of `CC(OS(C)(=O)=O)C(C)OS(C)(=O)=O` (centres undefined), the T/C (dose: 100.0 mg/kg/injection, schedule: Q04DX003 (ip), vehicle: Klucel (hydroxypropylcellulose) (HPC)) is reported as 89 % of control, the T/C (dose: 200.0 mg/kg/injection, schedule: Q04DX003 (ip), vehicle: Klucel (hydroxypropylcellulose) (HPC)) is reported as 116 % of control and the T/C (dose: 400.0 mg/kg/injection, schedule: Q04DX003 (ip), vehicle: Klucel (hydroxypropylcellulose) (HPC)) is reported as 120 % of control.
`N=C1C=CC2C(=Nc3ccccc3[N+]2=O)N1CCO` (centres undefined) was tested, and the T/C (dose: 15.0 mg/kg/injection, schedule: Q01DX005 (ip), vehicle: saline with Tween-80) was 99 % of control and 105 % of control, the T/C (dose: 30.0 mg/kg/injection, schedule: Q01DX005 (ip), vehicle: saline with Tween-80) was 101 % of control and 112 % of control and the T/C [3] was 100 % of control and 103 % of control.
In the case of `O=C(NCCCCOc1ccccc1[N+](=O)[O-])OCc1ccccc1`, the T/C [19] is reported as 101 % of control, the T/C [12] is reported as 97 % of control and the T/C [13] is reported as 101 % of control.
In the case of `CCc1c(Cc2[nH]c(C=O)c(C)c2CC)[nH]c(C=O)c1C`, the T/C [19] is reported as 100 % of control, the T/C [12] is reported as 100 % of control and the T/C [13] is reported as 100 % of control.
